Test results published in publication PMC6624297 (Cell Death & Disease, 2019).

What was measured:
[1] = tested on: SK-MES-1 cells; experiment: MTT assay SK-MES-1; format: cell-based
[2] = tested on: A549 cells; experiment: Transwell migration and wound healing, A549; format: cell-based, human; conditions: at high doses
Experimental: Cell migration ability was measured using transwell chambers (8-μm pore size; Corning Costar, Cambridge, MA, USA). For the transwell assay, A549 and H460 cells suspended in serum-free RPMI-1640 medium containing different concentrations of L14e (0, 0.5, 1.0, and 1.5 μM) were seeded into the upper chamber. The lower chamber contained RPMI-1640 medium supplemented with 20% serum. After 24 h incubation, the filters were fixed in methanol and stained with 0.1% crystal violet. The upper faces of the filters were gently abraded, and the lower faces with cells migrated across the filters were imaged and counted under the microscope. For wound healing assays, cells were placed into 6-well plates and cultured until 100% confluence. An artificial scratch was created using a 200 μL pipette tip. Add serum-free RPMI-1640 medium containing different concentrations of drugs. At 24 h after culturing in serum-free medium, wound closure images were captured in the same field under magnification. Cell healing rates were calculated by the fraction of cell coverage across the line. These experiments were performed in triplicate and repeated three times.

[3] = tested on: MDA-MB-231 cells; experiment: MTT assay MDA-MB-231; format: cell-based; conditions: Homo sapiens, 24h of treatment, mean ± SD
Experimental: (§1) Details are given in Supplementary Materials and Methods. Using probability unit and weighted regression method to calculate the IC50 value of compounds.
(§2) Total cells in the logarithmic growth phase were collected, digested using 0.25% pancreatic enzymes, and then diluted into single-cell suspensions using phosphate-buffered solution (PBS). These cells were seeded into 96-well plates at 4× 10^3-5× 10^3 cells per well (100 µL per well) and then A549, H460, OVCAR-3, SGC7901, MDA-MB-231, HCT116 and HepG2 were cultured at 37°Cin an incubator containing 5% CO2. After cell complete attachment, 100 µL of different concentrations of compounds (0.625 μM, 1.25 μM, 2.5μM, 5 μM, 10 μM) were added to the cells after the nutrient solution in each well was discarded, while no compound except 0.1% DMSO was added to cells in the control group; at the same time, each concentration was set up to 5 wells. In addition, 5 wells in each 96-well plate only received 100 µL of nutrient solution as a blank control. The plates were taken out after the cells were incubated with compounds for 24 h, and 20 µL of MTT solution (5 mg/mL) (Wuhan Boster Biotechnology Limited Company, Wuhan, China; item No. AR1156) was added into all the wells. After another time of incubation for 4 h at 37 °C, the nutrient solution in each well was discarded slowly, and 150 µL of DMSO was added to each well. The plates were shaken on a shaking table for 20 min. When the crystals were fully dissolved, the blank wells were used to zero the plate reader. The optical density (OD) of each well was detected at 490 nm. The IC50 value was determined as the concentration of the inhibitor that caused 50% inhibition. Using probability unit and weighted regression method to calculate the IC50 value of compounds.

[4] = biological target: T1, human TS (hTS) (Homo sapiens, UniProt P04818); experiment: Thymidylate synthase (TS) spectrophotometric assay; format: biochemical; conditions: averages from triplicate assays
T1 construct: purchased ProSpec-Tany
T1 sequence (P04818 whole entry): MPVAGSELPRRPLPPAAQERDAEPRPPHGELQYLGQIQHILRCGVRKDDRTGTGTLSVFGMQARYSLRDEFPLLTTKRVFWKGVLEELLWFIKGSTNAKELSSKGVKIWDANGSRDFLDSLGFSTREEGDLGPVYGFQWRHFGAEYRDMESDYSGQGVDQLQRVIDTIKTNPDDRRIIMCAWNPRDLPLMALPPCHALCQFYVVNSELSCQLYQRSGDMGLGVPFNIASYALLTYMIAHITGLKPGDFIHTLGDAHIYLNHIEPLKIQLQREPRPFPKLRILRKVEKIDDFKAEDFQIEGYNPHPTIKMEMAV
Experimental: Recombinant human thymidylate synthase purchased from ProSpec-Tany Company. TS was assayed spectrophotometrically at 30 °C and pH 7.4 in a mixture containing 0.1 M 2-mercaptoethanol, 0.0003 M (6R,S)-tetrahydrofolate, 0.012 M formaldehyde, 0.02 M MgCl2, 0.001 M dUMP, 0.04 M Tris–HCl, 30 nM hTS, and 0.00075 M NaEDTA. […] The reaction was initiated by the addition of an amount of enzyme yielding a change in absorbance at 340 nm of 0.016/min in the absence of inhibitor.

[5] = tested on: OVCAR-3 cells; experiment: MTT assay OVCAR-3; format: cell-based; conditions: Homo sapiens, 24h of treatment, mean ± SD
Experimental: as §1, §2

[6] = tested on: HPAEpiC cell line; experiment: Selectivity index against HPAEpiC; format: cell-based; conditions: SI = CC50/IC50
[7] = tested on: IOSE80 cell line; experiment: Selectivity index against IOSE80; format: cell-based; conditions: SI = CC50/IC50
[8] = tested on: HepG2 cells; experiment: MTT assay HepG2; format: cell-based; conditions: Homo sapiens, 24h of treatment, mean ± SD
Experimental: as §1, §2

[9] = tested on: HCT-116 cells; experiment: MTT assay HCT-116; format: cell-based; conditions: Homo sapiens, 24h of treatment, mean ± SD
Experimental: as §1, §2

[10] = tested on: A549 cells; experiment: MTT assay A549; format: cell-based, human; conditions: Homo sapiens, A549, 24h of treatment, mean ± SD
Experimental: as §1, §2

[11] = tested on: HCoEpiC cell line; experiment: Selectivity index against HCoEpiC; format: cell-based; conditions: SI = CC50/IC50
[12] = tested on: GES-1 cell line; experiment: Selectivity index against GES-1; format: cell-based; conditions: SI = CC50/IC50
[13] = biological target: EGFR kinase (Homo sapiens, UniProt P00533); experiment: ADP-Glo kinase assay, EGFR; format: biochemical; conditions: averages from triplicate assays
Chain of EGFR kinase (P00533 25-1210): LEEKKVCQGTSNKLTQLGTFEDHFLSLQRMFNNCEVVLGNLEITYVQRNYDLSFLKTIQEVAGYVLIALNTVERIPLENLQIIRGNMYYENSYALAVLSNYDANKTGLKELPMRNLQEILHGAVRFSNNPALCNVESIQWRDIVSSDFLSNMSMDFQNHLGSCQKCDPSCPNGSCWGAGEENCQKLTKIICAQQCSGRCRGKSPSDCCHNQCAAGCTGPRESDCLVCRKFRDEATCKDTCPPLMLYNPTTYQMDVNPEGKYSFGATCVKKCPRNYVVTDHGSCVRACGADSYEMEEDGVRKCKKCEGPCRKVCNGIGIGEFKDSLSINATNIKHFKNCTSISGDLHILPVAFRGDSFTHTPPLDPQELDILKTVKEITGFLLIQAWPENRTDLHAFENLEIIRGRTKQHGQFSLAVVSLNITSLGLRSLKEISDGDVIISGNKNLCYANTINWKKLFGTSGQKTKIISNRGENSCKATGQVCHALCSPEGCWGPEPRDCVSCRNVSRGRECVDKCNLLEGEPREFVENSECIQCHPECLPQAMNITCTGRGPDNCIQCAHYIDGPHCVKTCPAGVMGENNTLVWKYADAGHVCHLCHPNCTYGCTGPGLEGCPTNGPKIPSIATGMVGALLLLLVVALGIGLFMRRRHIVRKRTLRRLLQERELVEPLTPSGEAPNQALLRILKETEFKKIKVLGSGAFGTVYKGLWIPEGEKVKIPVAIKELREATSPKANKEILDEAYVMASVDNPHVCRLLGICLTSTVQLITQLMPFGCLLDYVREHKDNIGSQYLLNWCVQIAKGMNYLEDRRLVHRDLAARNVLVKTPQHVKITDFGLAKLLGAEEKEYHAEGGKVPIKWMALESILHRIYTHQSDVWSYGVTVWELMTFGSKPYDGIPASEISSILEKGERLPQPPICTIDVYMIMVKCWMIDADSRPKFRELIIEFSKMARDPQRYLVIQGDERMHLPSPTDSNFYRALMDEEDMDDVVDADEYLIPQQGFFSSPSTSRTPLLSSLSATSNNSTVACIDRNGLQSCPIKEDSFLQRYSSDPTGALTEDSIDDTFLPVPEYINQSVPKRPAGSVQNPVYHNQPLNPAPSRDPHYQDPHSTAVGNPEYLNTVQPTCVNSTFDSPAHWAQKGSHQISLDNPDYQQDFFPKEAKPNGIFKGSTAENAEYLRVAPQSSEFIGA
Experimental: (§3) The ADP-Glo™ kinase assay (Promega, Madison, WI) was used to screen target compounds for their inhibition effects for BRaf, EGFR kinase. The kinase assay was carried out in a 96-well plate, in a volume of 25 μL HEPES (pH 7.3) solvent containing 1.6 μg/mL EGF, and 20 ng of EGFR kinase, or 50 ng BRaf kinase, and 10 μM ATP (Promega, Madison, WI). […] Reactions in each well were started immediately by adding ATP and kept going for half an hour under 30 °C in a constant temperature incubator (Bluepard, Shanghai, China). After the plate cooled for 5 min at room temperature, 25 μl of ADP-Glo reagent was added into each well to stop the reaction and consume the remaining […] within 40 min. At the end, 50 μl of kinase detection reagent was added into the well and incubated for 1 h to produce a luminescence signal.

[14] = tested on: LO2 cell line; experiment: Selectivity index against LO2; format: cell-based; conditions: SI = CC50/IC50
[15] = tested on: HTB-125 cell line; experiment: Selectivity index against HTB-125; format: cell-based; conditions: SI = CC50/IC50
[16] = biological target: BRaf kinase (Homo sapiens, UniProt P15056); experiment: ADP-Glo kinase assay, BRaf; format: biochemical; conditions: averages from triplicate assays
Chain of BRaf kinase (P15056 whole entry): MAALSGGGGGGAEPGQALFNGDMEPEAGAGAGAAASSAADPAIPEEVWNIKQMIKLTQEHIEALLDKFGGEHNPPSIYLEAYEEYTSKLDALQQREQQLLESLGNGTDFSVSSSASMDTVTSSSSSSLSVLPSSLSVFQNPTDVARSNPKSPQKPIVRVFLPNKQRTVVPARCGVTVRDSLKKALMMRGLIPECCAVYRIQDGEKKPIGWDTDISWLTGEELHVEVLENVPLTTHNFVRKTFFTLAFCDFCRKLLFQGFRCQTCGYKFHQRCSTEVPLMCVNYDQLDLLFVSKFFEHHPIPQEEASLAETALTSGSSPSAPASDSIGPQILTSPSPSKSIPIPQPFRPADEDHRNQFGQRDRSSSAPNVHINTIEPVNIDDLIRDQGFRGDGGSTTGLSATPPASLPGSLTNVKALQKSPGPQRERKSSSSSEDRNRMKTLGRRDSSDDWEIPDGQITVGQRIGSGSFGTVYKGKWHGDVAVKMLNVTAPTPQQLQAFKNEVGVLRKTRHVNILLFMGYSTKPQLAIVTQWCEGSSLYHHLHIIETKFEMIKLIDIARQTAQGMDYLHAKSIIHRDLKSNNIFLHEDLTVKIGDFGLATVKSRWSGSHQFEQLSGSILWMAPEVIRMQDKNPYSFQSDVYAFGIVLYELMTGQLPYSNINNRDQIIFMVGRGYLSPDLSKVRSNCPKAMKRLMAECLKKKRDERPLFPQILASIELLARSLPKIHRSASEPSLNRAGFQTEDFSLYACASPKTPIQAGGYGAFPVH
Experimental: as §3

[17] = tested on: SGC7901 cells; experiment: MTT assay SGC7901; format: cell-based; conditions: Homo sapiens, SGC-7901, 24h of treatment, mean ± SD
Experimental: as §1, §2

[18] = tested on: FVB mice; experiment: Toxicity test in FVB mice; format: in vivo; conditions: mice, 3 weeks
Experimental: Blood was collected from euthanized mice under isoflurane-induced deep anesthesia by cardiac puncture. After allowing blood coagulation at 4 °C, serum was collected by centrifugation at 3000 rpm for 10 min at 4 °C. Analysis of the level of ALT, AST, Glu and CRE in the serum was performed using a veterinary hematology analyzer (Fuji DRI-Chem 3500 s, Fujifilm, Tokyo, Japan) according to the manufacturer’s provided protocols. The histopathological changes in liver, lung, brain, and kidney were evaluated by using HE-stained section of the tissues (This part of the results is in the supplementary document).
Tissues were fixed in 10% neutral-buffered formalin for 24 h, embedded in paraffin, cut into 4-μm-thick sections, deparaffinized with xylene and processed with a graded ethanol series. Next, the sections were stained with HE and were observed using Eclipse Ts2 microscope (Nikon).

SMILES | inhibition of SK-MES-1 cells [1] | inhibition of A549 cells migration [2] | IC50 [3] | IC50 [4] | IC50 [5] | SI (Selectivity index) HPAEpiC [6] | SI (Selectivity index) IOSE80 [7] | IC50 [8] | IC50 [9] | IC50 [10] | SI (Selectivity index) HCoEpiC [11] | SI (Selectivity index) GES-1 [12] | IC50 [13] | SI (Selectivity index) LO2 [14] | SI (Selectivity index) HTB-125 [15] | IC50 [16] | IC50 [17] | melting point | histopathological changes in liver, lung, brain, and kidney (HE staining) [18]
O=C(NNC(=O)c1ccccc1NS(=O)(=O)c1c[nH]c(=O)[nH]c1=O)c1cccc(Cl)c1 [Compound 10l, reference compound] | did not inhibit | could inhibit A549 cells migration at high doses | 2.04 ± 0.37 µM | 1.36 µM | 2.08 ± 0.12 µM | 16.56 | 11.90 | 7.66 ± 0.77 µM | 2.27 ± 0.23 µM | 1.26 ± 0.16 µM | 4.09 | 14.25 | 2.71 µM | 12.57 | 5.26 | 1.67 µM | 1.82 ± 0.08 µM | – | –
O=C(Nc1cccc(NS(=O)(=O)c2c[nH]c(=O)[nH]c2=O)c1)Nc1ccccc1Cl [Compound L15d, N'-(2-chlorophenyl)-3-(2,4-dihydroxypyrimidine-5-sulfonamido)phenylurea] | – | – | 2.04 ± 0.29 µM | 3.81 µM | 6.3 ± 0.25 µM | – | – | 4.97 ± 0.36 µM | 2.65 ± 0.33 µM | 1.87 ± 0.12 µM | – | – | 7.65 µM | – | – | 4.09 µM | 5.25 ± 0.81 µM | 159 to 162 °C | –
O=C(Nc1cccc(Cl)c1)Nc1cccc(NS(=O)(=O)c2c[nH]c(=O)[nH]c2=O)c1 [Compound L15e, N'-(3-chlorophenyl)-3-(2,4-dihydroxypyrimidine-5-sulfonamido)phenylurea] | – | – | 3.13 ± 0.09 µM | 2.17 µM | 1.19 ± 0.49 µM | – | – | 2.29 ± 0.29 µM | 3.3 ± 0.07 µM | 0.87 ± 0.28 µM | – | – | 4.37 µM | – | – | 2.96 µM | 2.58 ± 0.43 µM | 162 to 166 °C | –
O=C(Nc1ccc(Cl)cc1)Nc1cccc(NS(=O)(=O)c2c[nH]c(=O)[nH]c2=O)c1 [Compound L15f, N'-(4-chlorophenyl)-3-(2,4-dihydroxypyrimidine-5-sulfonamido)phenylurea] | – | – | 3.2 ± 0.62 µM | 1.55 µM | 1.49 ± 0.28 µM | – | – | 3.07 ± 0.29 µM | 7.61 ± 0.04 µM | 1.01 ± 0.11 µM | – | – | 5.54 µM | – | – | 2.68 µM | 4.28 ± 0.67 µM | 169 to 171 °C | –
Cc1ccccc1NC(=O)Nc1cccc(NS(=O)(=O)c2c[nH]c(=O)[nH]c2=O)c1 [Compound L15g, N'-(2-methylphenyl)-3-(2,4-dihydroxypyrimidine-5-sulfonamido)phenyl urea] | – | – | > 10 µM | > 10 µM | > 10 µM | – | – | 7.66 ± 0.78 µM | 6.41 ± 1.83 µM | 8.75 ± 0.61 µM | – | – | > 10 µM | – | – | > 10 µM | 7.04 ± 0.87 µM | 163 to 167 °C | –
Cc1cccc(NC(=O)Nc2cccc(NS(=O)(=O)c3c[nH]c(=O)[nH]c3=O)c2)c1 [Compound L15h, N'-(3-methylphenyl)-3-(2,4-dihydroxypyrimidine-5-sulfonamido)phenyl urea] | – | – | 6.41 ± 0.41 µM | 7.16 µM | 5.98 ± 0.6 µM | – | – | 5.97 ± 0.21 µM | 6.15 ± 0.53 µM | 1.46 ± 0.5 µM | – | – | 7.1 µM | – | – | 6.38 µM | 4.78 ± 0.62 µM | 165 to 169 °C | –
Cc1ccc(NC(=O)Nc2cccc(NS(=O)(=O)c3c[nH]c(=O)[nH]c3=O)c2)cc1 [Compound L15i, N'-(4-methylphenyl)-3-(2,4-dihydroxypyrimidine-5-sulfonamido)phenyl urea] | – | – | 9.06 ± 1.13 µM | 8.3 µM | > 10 µM | – | – | 6.96 ± 0.59 µM | 9.5 ± 1.6 µM | 4.18 ± 0.46 µM | – | – | 8.67 µM | – | – | 7.23 µM | 6.96 ± 1.53 µM | 173 to 175 °C | –
Nc1nc2[nH]cc(CCc3ccc(C(=O)N[C@@H](CCC(=O)O)C(=O)O)cc3)c2c(=O)[nH]1 [PTX, pemetrexed, reference compound] | did not inhibit | – | 4.18 ± 0.14 µM | – | 7.35 ± 0.6 µM | – | – | – | 4.64 ± 0.22 µM | 3.29 ± 0.15 µM | – | – | – | – | – | – | 6.96 ± 0.43 µM | – | no visible pathological changes
